In experiment [1] the test system is H1975 lung cancer cell line. The experiment in a line: Cancer cell growth inhibition, H1975 (celltiter). Particulars: Homo sapiens, NCI-H1975, 48 h, read-out: IC50 (nM) H1975.
Description: The medium was removed from each well of the 96-well plate.
In case of H1975, the cells were diluted with a culture medium to a concentration of 50,000 cells/ml. 100 μl of the diluted cell solution was added to each well of a 96-well plate, and, after 1 day, was washed with a mixture of RPMI, 0.1% FBS and 1% penicillin-streptomycin (PS), followed by replacement of the medium. The plate was allowed to be kept overnight and be treated to various concentrations under the same medium condition for 48 hrs. Similarly to an MTT assay, 15 μl of a celltiter one shot solution (Promega) was added to each well, which was incubated for 2 to 3 hrs, and, then, the absorbance at 490 nm was determined.
The subject of experiment [2] is A431 skin cancer cell line. The experiment in a line: Cancer cell growth inhibition, A431 (SRB). Particulars: Homo sapiens, A-431, 72 h, read-out: ID50 (nM) A431.
Experiment [3] concerns SW-620 colon/rectal cancer cell line. The experiment is described as follows: Cancer cell growth inhibition, SW-620 (SRB). The note with it: Homo sapiens, SW-620, 72 h, read-out: IC50 (nM) SW-620.
The test system of experiment [4] is SK-Br3 breast cancer cell line. The experiment in a line: Cancer cell growth inhibition, SK-Br3 (SRB). Particulars: Homo sapiens, SK-BR-3, 72 h, read-out: ID50 (nM) SK-Br3.
The target of experiment [5] is EGFR (EGFR type 1 kinase, Upstate) (Homo sapiens, UniProt P00533). The experiment in a line: Inhibition of EGFR enzyme (fluorescence polarization kinase assay). Particulars: read-out: IC50 (nM) EGFR; EGFR type 1 kinase, ATP 50 μM.
Chain of EGFR (EGFR type 1 kinase, Upstate) (P00533 25-1210): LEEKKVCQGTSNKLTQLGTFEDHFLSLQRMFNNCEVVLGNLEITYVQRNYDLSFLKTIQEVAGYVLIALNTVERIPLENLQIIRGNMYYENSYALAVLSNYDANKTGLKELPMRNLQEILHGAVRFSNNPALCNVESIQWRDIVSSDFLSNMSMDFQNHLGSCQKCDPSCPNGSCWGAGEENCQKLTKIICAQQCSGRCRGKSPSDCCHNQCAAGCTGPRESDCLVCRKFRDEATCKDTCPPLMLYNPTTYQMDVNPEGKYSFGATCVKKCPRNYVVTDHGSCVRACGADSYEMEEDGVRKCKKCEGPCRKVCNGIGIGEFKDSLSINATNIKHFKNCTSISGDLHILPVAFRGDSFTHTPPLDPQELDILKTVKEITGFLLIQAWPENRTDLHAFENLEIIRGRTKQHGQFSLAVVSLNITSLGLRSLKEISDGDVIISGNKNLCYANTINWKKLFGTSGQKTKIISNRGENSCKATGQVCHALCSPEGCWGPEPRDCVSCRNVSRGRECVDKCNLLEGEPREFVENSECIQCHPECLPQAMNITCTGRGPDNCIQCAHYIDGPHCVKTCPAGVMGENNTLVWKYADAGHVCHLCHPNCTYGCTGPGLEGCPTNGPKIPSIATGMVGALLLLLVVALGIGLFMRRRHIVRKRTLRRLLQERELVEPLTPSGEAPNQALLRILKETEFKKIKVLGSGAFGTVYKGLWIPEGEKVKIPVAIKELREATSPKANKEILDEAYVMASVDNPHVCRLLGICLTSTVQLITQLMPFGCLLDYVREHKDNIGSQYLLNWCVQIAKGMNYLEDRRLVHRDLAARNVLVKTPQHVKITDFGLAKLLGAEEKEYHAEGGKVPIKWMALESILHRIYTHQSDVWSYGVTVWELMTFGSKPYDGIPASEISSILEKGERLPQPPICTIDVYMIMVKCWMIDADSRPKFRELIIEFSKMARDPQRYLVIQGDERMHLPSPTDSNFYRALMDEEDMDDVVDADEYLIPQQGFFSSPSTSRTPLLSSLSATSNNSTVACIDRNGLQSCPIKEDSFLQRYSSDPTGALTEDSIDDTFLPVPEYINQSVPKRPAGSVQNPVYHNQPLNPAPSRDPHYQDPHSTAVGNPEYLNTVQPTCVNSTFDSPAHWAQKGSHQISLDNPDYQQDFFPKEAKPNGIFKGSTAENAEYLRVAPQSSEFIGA
Description: 10 μl of an EGFR (EGFR type 1 kinase, Upstate, 10 ng/μl) was added to each well of a 96-well plate. […] The calculation and analysis of IC50 were carried out by using Microsoft Excel.
Another experiment addresses EGFR T790M kinase (Homo sapiens, UniProt P00533, T790M). The experiment in a line: Inhibition of EGFR mutant enzyme (T790M).
In another experiment the target is T1, EGFR (Homo sapiens, UniProt P00533).
T1 construct: A skin cancer cell line, A431 (ATCC: CRL-1555), was used; endogenous in cells; host or cells: A431 (ATCC: CRL-1555)
T1 sequence (P00533 25-1210): as above
The experiment in a line: Prolongation study in A431 cells (EGFR phosphorylation inhibition). The note with it: A-431, 1 μM for 4 hrs, then washed, EGF 100 ng/ml. It is filed as cell-based. As to the method:
A skin cancer cell line, A431 (ATCC: CRL-1555), was used to test the degrees of the inventive compounds in inhibiting EGFR's phosphorylation and the prolongation of ability to inhibit it thereof.
The cell line was incubated in a culture flask at 37° C. under 95% air and 5% CO2 using a culture medium containing DMEM, 10% FBS and 1% PS. When more than 90% of the total volume of the culture flask became filled with cells, the cultured cell solution was subject to secondary incubation and was poured to each well of a 6-well plate to the extent of 500,000 cells/well. After 24 hrs, the cells were separated from the solution, washed with PBS, and incubated in a culture medium containing DMEM, 0.1% FBS and 1% PS for 16 hrs. The compounds obtained in Examples 1, 17, 19 and 36, and Tarceva as EGFR phosphorylation inhibitors were each added to the cell-containing well to a concentration of 1 μM. After 4 hrs, the cells were separated from the solution, washed 4 times with PBS after every 0, 2, 4 and 8 hrs, and incubated in a culture medium containing DMEM, 0.1% FBS and 1% PS. […] Just before the completion of the reaction, the cultured cell solution was treated with a 100 ng/ml concentration of EGF (Sigma, Cat No. E9644) for 5 mins to induce the activation of EGFR. After the completion of the reaction, the well plate holding the cultured cells was stored at −70° C. In control groups, the replacement of the medium was performed instead of the addition of the EGFR phosphorylation inhibitor, wherein the induction of EGFR activation using EGF was made only in a positive control group and not made in a negative control group.
For Western blot and enzyme immune measuring (ELISA) methods, the well plate stored at −70° C. was allowed to melt to room temperature, and then protein was extracted from the cells in the well plate using a protein extract buffer. The extraction of the protein was performed as follows: 250 μl of the protein extract buffer (Phosphosafe extraction reagent, Calbiochem, Cat No. 71296-3) comprising protease inhibitor cocktail was added to each cell-containing well, which was stirred at room temperature for 5 mins. The cells were collected using a cell scraper and put in an 1.5 ml tube, which was centrifuged at a speed of 16,000×g for 5 mins. The upper layer thus obtained was separated, of which the protein content was determined by a protein assay kit (Bio-rad, Cat No. 500-0116). The protein extracted was diluted with PBS to a concentration of 0.8 mg/ml.
A human EGFR (py1173) immunoassay kit (Biosource, Cat No. KHR9071) was used in the enzyme immune measuring method. 100 μl of the sample which was diluted by 4 folds with a standard dilution buffer in a kit was added to a strip well, which was incubated at a 4° C. refrigerator overnight. The cultured cells was separated therefrom and washed 4 times with 200 μl of a washing buffer. 100 μl of the resulting primary antibody (anti-human EGFR [pY1173]) was put to each strip well, incubated at 37° C. for 1 hr, and washed 4 times with 200 μl of a washing buffer. The resulting secondary antibody (anti-rabbit IgG-HRP) was diluted by 100 folds with an HRP dilution buffer in a kit. 100 μl of the dilute was put to each strip well, incubated at 37° C. for 30 mins, and washed 4 times with 200 μl of the washing buffer. 100 μl of an HRP substrate in a kit was put to each strip well and incubated in a darkroom for 10 to 30 mins. 100 μl of a reaction stop solution was added thereto to terminate the reaction, and then, the absorbance at 450 nm was observed.
Electrophoresis and Western blot methods were conducted based on the conventional methods in the following: An LDS buffer was added to each sample, which was allowed to boil at 70° C. for 10 mins. 10 μl of the resulting solution was loaded to a 12-well gel (Nupage 4˜12% Bis-tris gel, Invitrogen), followed by 120 volt-electrophoresis in a buffer (MOPS electrophoresis buffer, Invitrogen, Cat No. NP0006-1) for 2 hrs. […]

Setting [6] is: read-out: IC50 (nM) T790M, EGFR T790M kinase.

Where two headings read alike, the source gives them in different places. A value given as a limit tells only on which side of the number the result lay.

Chain of EGFR T790M kinase (P00533 25-1210 T790M): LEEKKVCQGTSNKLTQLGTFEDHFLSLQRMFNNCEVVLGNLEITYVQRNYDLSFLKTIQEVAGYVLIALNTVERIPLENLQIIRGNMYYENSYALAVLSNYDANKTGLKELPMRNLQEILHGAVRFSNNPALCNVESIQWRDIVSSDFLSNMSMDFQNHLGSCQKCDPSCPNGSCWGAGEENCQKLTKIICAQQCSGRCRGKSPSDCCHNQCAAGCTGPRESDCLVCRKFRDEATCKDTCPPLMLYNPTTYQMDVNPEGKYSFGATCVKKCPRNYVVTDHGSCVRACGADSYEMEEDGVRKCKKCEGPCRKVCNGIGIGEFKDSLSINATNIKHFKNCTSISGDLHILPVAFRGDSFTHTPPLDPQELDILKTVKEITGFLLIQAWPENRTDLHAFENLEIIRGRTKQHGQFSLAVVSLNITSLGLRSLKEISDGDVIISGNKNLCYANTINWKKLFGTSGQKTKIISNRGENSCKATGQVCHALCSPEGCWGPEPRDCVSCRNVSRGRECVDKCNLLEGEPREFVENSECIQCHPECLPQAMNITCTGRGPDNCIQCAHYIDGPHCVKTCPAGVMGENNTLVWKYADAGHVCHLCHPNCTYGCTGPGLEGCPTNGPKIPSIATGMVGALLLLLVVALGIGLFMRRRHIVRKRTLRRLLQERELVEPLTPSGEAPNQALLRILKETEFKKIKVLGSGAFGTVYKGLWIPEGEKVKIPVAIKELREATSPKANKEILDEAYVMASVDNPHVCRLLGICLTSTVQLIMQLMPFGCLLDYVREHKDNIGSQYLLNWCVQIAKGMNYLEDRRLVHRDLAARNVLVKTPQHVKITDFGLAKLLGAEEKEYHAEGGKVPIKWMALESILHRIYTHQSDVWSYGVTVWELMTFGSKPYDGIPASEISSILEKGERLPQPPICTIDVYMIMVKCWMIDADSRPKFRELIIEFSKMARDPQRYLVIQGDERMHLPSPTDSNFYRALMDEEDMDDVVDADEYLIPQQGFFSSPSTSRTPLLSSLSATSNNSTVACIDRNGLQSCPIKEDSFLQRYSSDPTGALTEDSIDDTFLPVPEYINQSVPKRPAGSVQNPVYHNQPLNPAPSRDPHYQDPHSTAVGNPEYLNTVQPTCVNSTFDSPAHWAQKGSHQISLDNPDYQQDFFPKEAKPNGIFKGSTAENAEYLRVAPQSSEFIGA

In the case of `C=CC(=O)N1CC[C@H](Oc2cc3c(Nc4ccc(Br)c(Cl)c4F)ncnc3cc2OC)C1` [Example 7, 1-((3S)-3-(4-(4-bromo-3-chloro-2-fluorophenylamino)-7-methoxyquinazolin-6-yloxy)pyrrolidin-1-yl)pro-2-pen-1-one], the IC50 in experiment [1] was 55 nM; in experiment [2], 5 nM; in experiment [3] it was above 5000 nM; in experiment [4], 8 nM; in experiment [5] it was 10 nM; at EGFR T790M kinase (setting [6]), 8 nM.

For the compound `C=CC(=O)N1CC[C@H](Oc2cc3c(Nc4ccc(OCc5ccccn5)c(Cl)c4)ncnc3cc2OC)C1` [Example 10, 1-((3S)-3-(4-(3-chloro-4-(pyridin-2-ylmethoxy)phenylamino)-7-methoxyquinazolin-6-yloxy)pyrrolidin-1-yl)pro-2-pen-1-one], the IC50 in experiment [2] was 14 nM; in experiment [3], above 5000 nM; in experiment [4], 7 nM; in experiment [5] it was 5 nM; on EGFR T790M kinase (setting [6]) it was 10 nM.

In the case of `C=CC(=O)N1CC[C@H](Oc2ccc3ncnc(Nc4ccc(OCc5cccc(F)c5)c(Cl)c4)c3c2)C1` [Example 16, 1-((3S)-3-(4-(3-chloro-4-(3-fluorobenzyloxy)phenylamino)quinazolin-6-yloxy)pyrrolidin-1-yl)pro-2-pen-1-one], the IC50 in experiment [2] was 15 nM; in experiment [3], above 5000 nM; in experiment [4], 7 nM; in experiment [5] it was 8 nM; at EGFR T790M kinase (setting [6]), 47 nM.

The term inhibition denotes the drop in the measured response relative to a control, in per cent. As to `C=CC(=O)N1CC(Oc2cc3c(Nc4ccc(F)c(Cl)c4F)ncnc3cc2OC)C1` [Example 17, 1-(3-(4-(3-chloro-2,4-difluorophenylamino)-7-methoxyquinazolin-6-yloxy)azetidin-1-yl)pro-2-pen-1-one], the IC50 was 1.5 nM in experiment [1]; 0.3 nM in experiment [2]; above 5000 nM in experiment [3]; 0.3 nM in experiment [4]; 0.7 nM in experiment [5]; 0.8 nM at EGFR T790M kinase (setting [6]). The inhibition at 1 µM was 87% at EGFR (0 hr after washing, read-out: EGFR phosphorylation inhibition in A431 cell line (%) 0 hr Avg.); 88% on EGFR (8 hrs after washing, read-out: EGFR phosphorylation inhibition in A431 cell line (%) 8 hrs Avg.); 62% at EGFR (24 hrs after washing, read-out: EGFR phosphorylation inhibition in A431 cell line (%) 24 hrs Avg.); 31% at EGFR (48 hrs after washing, read-out: EGFR phosphorylation inhibition in A431 cell line (%) 48 hrs Avg.); 0% on EGFR (72 hrs after washing, read-out: EGFR phosphorylation inhibition in A431 cell line (%) 72 hrs Avg.).

Turning to `C=CC(=O)N1CC(Oc2cc3c(Nc4cccc(Cl)c4F)ncnc3cc2OC)C1` [Example 23, 1-(3-(4-(3-chloro-2-fluorophenylamino)-7-methoxyquinazolin-6-yloxy)azetidin-1-yl)pro-2-pen-1-one], the IC50 is 9 nM in experiment [1]; 1.6 nM in experiment [2]; above 5000 nM in experiment [3]; 0.5 nM in experiment [4]; 6 nM in experiment [5]; 4 nM on EGFR T790M kinase (setting [6]).

On to `C=CC(=O)N1CC(Oc2cc3c(Nc4cccc(Cl)c4)ncnc3cc2OC)C1` [Example 26, 1-(3-(4-(3-chlorophenylamino)-7-methoxyquinazolin-6-yloxy)azetidin-1-yl)pro-2-pen-1-one], for which the IC50 in experiment [1] was 17.7 nM; in experiment [2], 1.6 nM; in experiment [3] it was above 5000 nM; in experiment [4], 6 nM; in experiment [5] it was 1.6 nM; at EGFR T790M kinase (setting [6]), 3.3 nM.

For the compound `C=CC(=O)N1CCC(Oc2cc3c(Nc4cccc(Cl)c4F)ncnc3cc2OC)CC1` [Example 34, 1-(4-(4-(3-chloro-2-fluorophenylamino)-7-methoxyquinazolin-6-yloxy)piperidin-1-yl)pro-2-pen-1-one], the IC50 is 22 nM in experiment [1]; 2 nM in experiment [2]; above 5000 nM in experiment [3]; 0.2 nM in experiment [4]; 6 nM in experiment [5]; 5 nM at EGFR T790M kinase (setting [6]).

Take `C=CC(=O)N1CCC(Oc2cc3c(Nc4ccc(F)c(Cl)c4F)ncnc3cc2OCCOC)CC1` [Example 117, 1-(4-(4-(3-Chloro-2,4-difluorophenylamino)-7-(2-methoxyethoxy)quinazolin-6-yloxy)piperidin-1-yl)prop-2-en-1-one]: the IC50 is 47 nM in experiment [1]; 4 nM in experiment [2]; above 5000 nM in experiment [3]; 1.4 nM in experiment [4]; 0.7 nM in experiment [5]; 3 nM against EGFR T790M kinase.

Regarding `C=CC(=O)N1CC[C@H](Oc2cc3c(Nc4ccc(F)c(Cl)c4F)ncnc3cc2OC)C[C@H]1C(N)=O` [Example 120, (2S,4S)-1-acryloyl-4-(4-(3-chloro-2,4-difluorophenylamino)-7-methoxyquinazolin-6-yloxy)piperidin-2-carboxamide], the IC50 was 5.2 nM in experiment [1]; 3 nM in experiment [2]; above 5000 nM in experiment [3]; 1.3 nM in experiment [4]; 1.4 nM in experiment [5]; 0.7 nM on EGFR T790M kinase (setting [6]).

Consider `C=CC(=O)N1CC[C@@H](Oc2cc3c(Nc4ccc(F)c(Cl)c4F)ncnc3cc2OC)C[C@@H]1C(=O)OC` [Example 133, (2R,4R)-methyl 1-acryloyl-4-(4-(3-chloro-2,4-difluorophenylamino)-7-methoxyquinazolin-6-yloxy)piperidin-2-carboxylate], for which the IC50 was 5.4 nM in experiment [1]; 0.7 nM in experiment [2]; above 5000 nM in experiment [3]; 0.2 nM in experiment [4]; 4.4 nM in experiment [5]; 1.7 nM at EGFR T790M kinase (setting [6]).

`C=CC(=O)N1CC[C@@H](Oc2cc3c(Nc4ccc(F)c(Cl)c4F)ncnc3cc2OC)C[C@@H]1C(N)=O` [Example 135, (2R,4R)-1-acryloyl-4-(4-(3-chloro-2,4-difluorophenylamino)-7-methoxyquinazolin-6-yloxy)piperidin-2-carboxamide]: the IC50 in experiment [1] was 5.2 nM; in experiment [2], 0.8 nM; in experiment [3] it was above 5000 nM; in experiment [4], 0.2 nM; in experiment [5], 4.1 nM; on EGFR T790M kinase (setting [6]) it was 0.7 nM.

(Values after patent US8188102B2, “Amide derivative for inhibiting the growth of cancer cells” (Hanmi Holdings Co., Ltd., priority 2007, dated 2012).)
